Legend:
Type in all cases: cell-based
Conditions in all cases: inoculum about 10^4 CFU/ml, 18-24 h at 37° C.
Staph. aureus Tour L 165 = assay: MIC, standard dilution test, Staph. aureus Tour L 165
Procedure: (§1) ISOSENSITEST broth (Oxoid) and TOLLD-HEWITT broth (Difco) are used for growing staphylococci and streptococci, respectively. Broth cultures are diluted so that the final inoculum is about 10^4 colony forming units/ml (CFU/ml).

[1] = test system: Staph. haemolyticus L 602; assay: MIC, standard dilution test, Staph. haemolyticus L 602
Procedure: as §1

[2] = test system: Neisseria gonorrhoeae ISM68/126; assay: MIC, standard dilution test, Neisseria gonorrhoeae ISM68/126
Procedure: as §1

[3] = test system: Pseudomonas aeruginosa ATCC 10145; assay: MIC, standard dilution test, Pseudomonas aeruginosa ATCC 10145
Procedure: as §1

Strep. pneumoniae UC41 = assay: MIC, standard dilution test, Strep. pneumoniae UC41
Procedure: as §1

Strep. pyogenes C 203 = assay: MIC, standard dilution test, Strep. pyogenes C 203
Procedure: as §1

[4] = test system: Escherichia coli SKF 12140; assay: MIC, standard dilution test, Escherichia coli SKF 12140
Procedure: as §1

Strep. mitis L 796 = assay: MIC, standard dilution test, Strep. mitis L 796
Procedure: as §1

[5] = test system: Strep. faecalis ATCC 7080; assay: MIC, standard dilution test, Strep. faecalis ATCC 7080
Procedure: as §1

[6] = test system: Proteus vulgaris ATCC 881; assay: MIC, standard dilution test, Proteus vulgaris ATCC 881
Procedure: as §1

[7] = test system: Staph. epidermidis ATCC 12228; assay: MIC, standard dilution test, Staph. epidermidis ATCC 12228
Procedure: as §1

[8] = test system: Haemophilus influenzae ATCC 19418; assay: MIC, standard dilution test, Haemophilus influenzae ATCC 19418
Procedure: as §1

Minimal inhibitory concentration (MIC) (Staph. aureus Tour L 165)	Minimal inhibitory concentration (MIC) [2]	Minimal inhibitory concentration (MIC) [3]	Minimal inhibitory concentration (MIC) (Strep. pneumoniae UC41)	Minimal inhibitory concentration (MIC) (Strep. pyogenes C 203)	Minimal inhibitory concentration (MIC) [4]	Minimal inhibitory concentration (MIC) (Strep. mitis L 796)	Minimal inhibitory concentration (MIC) [5]	Minimal inhibitory concentration (MIC) [6]	Minimal inhibitory concentration (MIC) [7]	Minimal inhibitory concentration (MIC) [8]	SMILES	Minimal inhibitory concentration (MIC) [1]
2	> 128	> 128	0.125	0.125	> 128	0.125	4	> 128	2	> 128	COC(=O)C1NC(=O)C2NC(=O)C(NC(=O)C3NC(=O)C4NC(=O)C(Cc5ccc(c(Cl)c5)Oc5cc3cc(c5OCCCCN3C(=O)c5ccccc5C3=O)Oc3ccc(cc3Cl)C2O)NC(=O)C(N)c2ccc(O)c(c2)Oc2cc(O)cc4c2)c2ccc(O)c(c2)-c2c(O)cc(O)cc21.Cl (stereo not drawn) [Compound 2, O^56-[4(N-phthalimido)butyl]deglucoteicoplanin methyl ester]	4
0.25	64	> 128	0.125	0.25	32	0.125	0.125	> 128	0.125	64	COC(=O)C1NC(=O)C2NC(=O)C(NC(=O)C3NC(=O)C4NC(=O)C(Cc5ccc(c(Cl)c5)Oc5cc3cc(c5OCCN3CCOCC3)Oc3ccc(cc3Cl)C2O)NC(=O)C(N)c2ccc(O)c(c2)Oc2cc(O)cc4c2)c2ccc(O)c(c2)-c2c(O)cc(O)cc21.Cl.Cl (stereo not drawn) [Compound 14, O^56-[2-(1-morpholinyl)ethyl]deglucoteicoplanin methyl ester dihydrochloride]	2
0.25	> 128	> 128	0.5	0.125	> 128	0.25	0.125	> 128	0.125	> 128	Cl.NC1C(=O)NC2Cc3ccc(c(Cl)c3)Oc3cc4cc(c3OCCBr)Oc3ccc(cc3Cl)C(O)C3NC(=O)C(NC(=O)C4NC(=O)C(NC2=O)c2cc(O)cc(c2)Oc2cc1ccc2O)c1ccc(O)c(c1)-c1c(O)cc(O)cc1C(C(=O)OCCBr)NC3=O (stereo not drawn) [Compound 17, O^56-(2-bromoethyl)deglucoteicoplanin 2-bromoethyl ester hydrochloride salt]	4

From patent US5185320A, “O^56 -alkyl derivatives of aglycone and pseudo aglycones of teicoplanin” (Gruppo Lepetit S.p.A., priority 1989, dated 1993)
